Reference: patent US8859284B2, “Delivery of nanoparticles to neurons” (The United States of America, as represented by the …, priority 2009, dated 2014)
Square brackets hold non-standard residues; d marks the D form. Ends that are not written are not given here. * marks the point of attachment. Farnesyl = CC(C)=CCC/C(C)=C/CC/C(C)=C/C*; Palmitoyl = CCCCCCCCCCCCCCCC(=O)*; Dapaa = not defined here; Dapdi = not defined here; Dab = NCC[C@H](N)C(=O)O; Dap = NC[C@H](N)C(=O)O; Kh = not defined here; bi = not defined here; Aib = CC(C)(N)C(=O)O

What was measured:
HEK 293T/17 cells = assay: Cellular delivery of QDs, intracellular fate by fluorescence microscopy; conditions: for disruption of endosomes: with QD-CPP, 2-3 h, highest concentrations (500 mM sucrose or 500 μM chloroquine)
Description: Human embryonic kidney (HEK 293T/17) and African green monkey kidney (COS-1) cell lines (ATCC, Manassas, Va.) were cultured in complete growth medium (Dulbecco's Modified Eagle's Medium (DMEM; purchased from ATCC)) supplemented with 1% (v/v) antibiotic/antimycotic and 10% (v/v) heat inactivated fetal bovine serum (ATCC). Cells were cultured in T-25 flasks and incubated at 37° C. under 5% CO2 atmosphere and a subculture was performed every 3-4 days (see reference 13).
The QD delivery experiments were performed on adherent cells seeded into the wells of Lab-Tek 8-well chambered #1 borosilicate coverglass (Nalge Nunc, Rochester, N.Y.) coated with 2 μg/mL fibronectin. For electroporation and nucleofection, adherent cells were harvested by trypsinization prior to performing QD delivery to cells in suspension. Cells were then seeded to chambered coverglass wells and imaged after cell attachment. The endosomal marker AlexaFluor647-transferrin was included as indicated in the text. For imaging, cells were washed with phosphate buffered saline (PBS, 137 mM NaCl, 10 mM phosphate, 3 mM KCl, pH 7.4), fixed with 3.7% paraformaldehyde in PBS and nuclei were stained with DAPI (Sigma) unless otherwise indicated.
For electroporation, cells were harvested by trypsinization and recovered for 1 hour in complete growth medium, pelleted, and resuspended in PBS. 510 nm DHLA-PEG QDs (0.5 μM final concentration) were mixed with 1×10^4 cells to a final volume of 100 μL in PBS in a 0.2 mm electroporation cuvette. The cuvette was subjected to 100 V for a 20 ms pulse using a GenePulser XCell electroporator (Bio-Rad, Hercules, Calif.). Cells were resuspended in complete growth medium, seeded into fibronectin-coated 8-well chambered coverglass, fixed and imaged after 24 hrs. For nucleofection delivery, 1×10^6 cells were harvested and resuspended in 100 μL of NUCLEOFECTOR reagent (Amaxa, Gaithersburg, Md.). 510 nm DHLA-PEG QDs were included at a final concentration of 0.4 μM. The cell/QD/reagent mixture was pulsed in the NUCLEOFECTOR using a preset protocol adapted for each specific cell line (20, 21). Cells were cultured and imaged as described for electroporation.
The INFLUX cell-loading reagent mediates the intracellular release of materials internalized via pinocytic vesicles by delivering the materials to cells in a hypertonic medium followed by the transfer of the cells to a hypotonic medium to induce vesicle disruption (see reference 22). 510 nm DHLA-PEG QDs were diluted to a final concentration of 300-800 nM in the supplied hypertonic delivery media according to manufacturer's instructions and incubated on the cells for 30 min at 37° C. The hypertonic medium was exchanged for hypotonic medium (serum-free culture medium diluted by 40% with deionized water) and incubated on the cells for 3 min. The cells were then recovered in complete growth medium for 30 min and cultured for various lengths of time prior to washing and fixation for imaging.
520 nm QDs with a 1:1 mixed surface of DHLA:DHLA-PEG were incubated with LIPOFECTAMINE 2000 for 20 min in serum free medium at a ratio of 1 μL LIPOFECTAMINE 2000 per 1.5 pmol QD. The complexes, at a final QD concentration of 75 nM, were incubated with the cells for 4 hours, removed and replaced with complete growth medium. The cells were then cultured for 24-36 h prior to washing and fixation.
PEI was incubated with 520 nm mixed surface DHLA:DHLA-PEG QDs in serum free medium at a ratio of 10 μg PEI per 1 pmol QD for 15 min. […] The complexes were then diluted into serum free media to a final QD concentration of 75-100 nM, incubated with cells for 2 h and removed. Cells were then cultured in complete media for 24-36 h, washed and fixed.
A stock solution of 520 nm DHLA:DHLA-PEG QDs (1 μM in 0.1 M borate buffer, pH 8.9) was diluted to 0.5 μM in HEPES (4-(2-hydroxyethyl)-1-piperazineethanesulfonic acid, pH 8.2).

COS-1 cells = assay: Cellular uptake and endosomal escape of QD-peptide assemblies, fluorescence microscopy; assay type: cell-based, African green monkey; conditions: for % Escape in cells with uptake: QD-peptide assemblies; for Overall uptake/escape: uptake: first word of the cell; for Overall uptake/escape: escape: second word of the cell; for intracellular distribution of QD-peptide assemblies: COS-1, 1 hr incubation, 24 hr culture
Description: Merged images were generated using Adobe PhotoShop.
The peptide assemblies were incubated with COS-1 cells for 1 hr, removed, and the cells were subsequently cultured for 24 hr prior to fixation. An AlexaFluor 647-transferrin (Tf) conjugate was included during the incubation to label the vesicles of the endocytic pathway. Cell nuclei were stained with DAPI.

Row | Molecule | % Escape in cells with uptake (COS-1 cells; COS1 cells) [%] | Overall uptake/escape: uptake (COS-1 cells; COS1 cells) | Overall uptake/escape: escape (COS-1 cells; COS1 cells) | other results
1 | CCN(CC)CCCC(C)Nc1ccnc2cc(Cl)ccc12 (stereo not drawn) [chloroquine] | – | – | – | Toxicity (HEK 293T/17 cells): significant cellular toxicity and morbidity; disruption of endosomes (HEK 293T/17 cells): efficiently disrupted the endosomes
2 | O=C(O)CCCc1ccc2ccc3cccc4ccc1c2c34 [pyrenebutyrate] | – | – | – | intracellular distribution of QDs (HEK 293T/17 cells; HEK 293T/17, endosomal marker AlexaFluor 647-transferrin): no cytosolic dispersal was observed
3 | OC[C@H]1O[C@@](CO)(O[C@H]2O[C@H](CO)[C@@H](O)[C@H](O)[C@H]2O)[C@@H](O)[C@@H]1O [sucrose] | – | – | – | Toxicity (HEK 293T/17 cells): significant cellular toxicity and morbidity; disruption of endosomes (HEK 293T/17 cells): efficiently disrupted the endosomes
4 | (H)6GG(P)9VKIKKDapaGW (HHHHHHGGPPPPPPPPPVKIKK[Dap](Palmitoyl)GW) [JB860] | 60 | Moderate | moderate | –
5 | (H)6GG(P)9WGDapaVKIKK (HHHHHHGGPPPPPPPPPWG[Dap](Palmitoyl)VKIKK) [JB859] | 17 | Moderate | low | –
6 | AcG(Pal)DapVKIKK P9GG H6 (Ac-G[Dap](Palmitoyl)VKIKKPPPPPPPPPGGHHHHHH) [Palm-1b] | – | – | – | intracellular distribution of QD-peptide assemblies (COS-1 cells): largely well dispersed throughout the cytoplasm
7 | AcG(Pal)DapVKIKKGLAAAAGG H6 (Ac-G[Dap](Palmitoyl)VKIKKGLAAAAGGHHHHHH) [Palm-2b] | – | – | – | intracellular distribution of QD-peptide assemblies (COS-1 cells): nearly entirely sequestered within endosomes
8 | AcG(Pal)DapVKIKKGLAPAAGG H6 (Ac-G[Dap](Palmitoyl)VKIKKGLAPAAGGHHHHHH) [Palm-3b] | – | – | – | intracellular distribution of QD-peptide assemblies (COS-1 cells): nearly entirely sequestered within endosomes
9 | KETWWETWWTEWSQPKKKRKVSGAibAAAGG(H)6 (KETWWETWWTEWSQPKKKRKVSG[Aib]AAAGGHHHHHH) [JB719, Chariot peptide, reference compound] | 43 | Moderate | moderate | –
10 | KhGDapaVKIKK(P)9GG(H)6 ([Kh]G[Dap](Palmitoyl)VKIKKPPPPPPPPPGGHHHHHH; reading uncertain; also: N-terminal modifications) [JB867] | – | – | – | QD/TAMRA colocalized (integrity) (COS-1 cells; COS1 cells, printed in the % QD uptake column): >90%
11 | VKIKKWGDapa(P)9GG(H)6 (VKIKKWG[Dap](Palmitoyl)PPPPPPPPPGGHHHHHH) [JB862] | 9 | Low | low | –
12 | WGCcVKIKK(P)9GG(H)6 [JB589] | 50 | Low | moderate | –
13 | WGCgVKIKK(P)9GG(H)6 (WGC(Farnesyl)VKIKKPPPPPPPPPGGHHHHHH; not fully specified) [JB872] | 79 | High | high | –
14 | WGDabaVKIKK(P)9GG(H)6 (WG[Dab](Palmitoyl)VKIKKPPPPPPPPPGGHHHHHH) [JB858] | – | – | – | % QD uptake (n), result in words (COS-1 cells; COS1 cells, cell continues in r20 'localized'): Membrane
15 | WGDapVKIKK(P)9GG(H)6 (WG[Dap]VKIKKPPPPPPPPPGGHHHHHH) [JB579] | 29 | Low | low | –
16 | WGDapVRL(P)3VRL(P)3VRL(P)3GG(H)6 (WG[Dap]VRLPPPVRLPPPVRLPPPGGHHHHHH) [JB868] | 18 | Moderate | low | –
17 | WGDapVRRRIRR(P)9GG(H)6 (WG[Dap]VRRRIRRPPPPPPPPPGGHHHHHH) [JB585] | 25 | Low | low | –

Row | Molecule | % Escape in cells with uptake (COS-1 cells; COS1 cells) [%] | Overall uptake/escape: uptake (COS-1 cells; COS1 cells) | Overall uptake/escape: escape (COS-1 cells; COS1 cells) | other results
18 | WGDapa(P)9GG(H)6 (WG[Dap](Palmitoyl)PPPPPPPPPGGHHHHHH) [JB578] | 46 | Low | moderate | –
19 | WGDapaGDapaVKIKK(P)9GG(H)6 (WG[Dap](Palmitoyl)G[Dap](Palmitoyl)VKIKKPPPPPPPPPGGHHHHHH) [JB580] | 92 | Low | high | –
20 | WGDapaRRRIRR(P)9GGK [JB588] | 85 | High | high | –
21 | WGDapaVKIKK(Aib)9GG(H)6 (WG[Dap](Palmitoyl)VKIKK[Aib][Aib][Aib][Aib][Aib][Aib][Aib][Aib][Aib]GGHHHHHH) [JB747] | 58 | High | moderate | –
22 | WGDapaVKIKK(P)4GG(H)6 (WG[Dap](Palmitoyl)VKIKKPPPPGGHHHHHH) [JB582] | – | None | none | –
23 | WGDapaVKIKK(P)9GGKb [JB728] | 93 | High | high | –
24 | WGDapaVKIKK(P)12GG(H)6 (WG[Dap](Palmitoyl)VKIKKPPPPPPPPPPPPGGHHHHHH) [JB865] | 68 | High | moderate | –
25 | WGDapaVKIKK(P)15GG(H)6 (WG[Dap](Palmitoyl)VKIKKPPPPPPPPPPPPPPPGGHHHHHH) [JB864] | 85 | High | high | –
26 | WGDapaVRL(P)3VRL(P)3VRL(P)3GG(H)6 (WG[Dap](Palmitoyl)VRLPPPVRLPPPVRLPPPGGHHHHHH) [JB869] | 55 | High | moderate | –
27 | WGDapaVRRRIRR(P)9GG(H)6 (WG[Dap](Palmitoyl)VRRRIRRPPPPPPPPPGGHHHHHH) [JB583] | 41 | Low | moderate | –
28 | WGDapaaVKIKK(P)9GG(H)6 (WG[Dapaa]VKIKKPPPPPPPPPGGHHHHHH; reading uncertain) [JB866] | 11 | Moderate | low | –
29 | WGDapdiVKIKK(P)9GG(H)6 (WG[Dapdi]VKIKKPPPPPPPPPGGHHHHHH; reading uncertain) [JB641] | 88 | Moderate | high | –
30 | WGDapeVKIKK(P)9GG(H)6 [JB729] | 84 | High | high | –
31 | WGDapfVKIKK(P)9GG(H)6 [SI09160] | 96 | Moderate | high | –
32 | WdGDapdiVKIKK(P)9GG(H)6 [JB621] | 90 | Low | high | –
33 | biKWGSAibAAALGG(R)10 (bi-KWGS[Aib]AAALGGRRRRRRRRRR; reading uncertain) [JB722, Dye labeled cell penetrating peptide, reference compound] | 1 | Low | low | –
